Measurements taken from patent publication EP3727043B1 (Golden Gait Biotech, S.L., priority 2017, dated 2019).
Read-outs that look alike come from different tables or passages of the source.

What was measured:
[1] = oral administration of capsules
[2] = system: patients with idiopathic PD and levodopa induced dyskinesias (LIDs)
Method: At the time the study was performed (2009), there was no FDA accepted instrument for measuring treatment efficacy for LIDs. Therefore, several secondary objectives were utilized to assess efficacy including the Unified Dyskinesia Rating Scale (UDysRS).
A total of 65 male and female subjects with idiopathic PD with LIDs were randomized in the study. The study consisted of 4 phases (FIG. 6A): screening phase (up to 3 weeks), double-blind treatment phase (10 weeks), taper phase (2 weeks), and follow-up phase (2 weeks). The approximate duration of the study for each subject was 17 weeks. […] During the double-blind treatment phase, dosing was begun at Visit 0 at 1 mg every 6 hours (total daily dose [TDD] = 4 mg/day) and escalated upwards at 2-week intervals as follows: 2 mg every 6 hours (TDD = 8 mg/day) at Visit 1 (Week 2); 4 mg every 6 hours (TDD = 16 mg/day) at Visit 2 (Week 4); 6 mg every 6 hours (TDD = 24 mg/day) at Visit 3 (Week 6). Subjects were maintained on 24 mg/day for 4 weeks. The subsequent taper phase (2 weeks total), beginning at Visit 4 (Week 10), consisted of 9 days of drug taper and 5 days off drug prior to Visit 5 (final safety visit). […] Ondansetron was provided by the sponsor and dispensed with each dose escalation step with instructions to use it for nausea and vomiting only during the first 4 days following dose initiation or escalation. […] No other dose down-titration was allowed. Table 5. Dose Escalation Schedule
A total of 65 patients with idiopathic PD and levodopa induced dyskinesias (LIDs) were randomized. Patients were required to have a diagnosis of idiopathic PD and be within a Hoehn & Yahr Stage II - IV while in a peak "ON" state(levodopa in a therapeutic range). They had to have moderate to severely disabling LIDs for at least 25% of the waking day, as determined by Questions 32 and 33 in Part II of the UPDRS and a Mini-Mental State Examination (MMSE) score of ≥26. Patients with atypical Parkinson disorders, prior deep brain stimulation (DBS), unstable angina, a history of ventricular arrhythmias, or active peptic ulcer or a history of schizophrenia, schizoaffective disorder, or bipolar disease were excluded. Patients who actively smoked were also excluded. Table 9: Demographics
The drug, or a placebo identical in appearance and packaging, was administered orally 4 times a day in a blinded fashion. Patients were examined while in an "ON" state, when levodopa was in a therapeutic range. During the treatment phase, dosing was begun at 1 mg every 6 hours (total daily dose=4 mg/day) and escalated upwards at 2-week intervals as follows: 2 mg every 6 hours at Visit 1; 4 mg every 6 hours at Visit 2; 6 mg every 6 hours at Visit 3. Patients were maintained on 24 mg/day for 4 weeks. All patients, study site personnel, raters and the sponsor were blinded to treatment assignment.
The original UPDRS scale was used. […] In the UPDRS Part II, Question 13 is on Falling unrelated to Freezing. […] In Part II, Question 14 is on Freezing when Walking. This is a 5-point item and has two variables freezing and falls. […] Questions 13 and 14 were compared separately (Table 11). […] Table 10: UPDRS Part II (ADL), UPDRS Part III (Motor Examination)
LIDs were assessed by the UDysRS, the main measure of LIDs (Table 12). […] The study was conducted in accordance with the Declaration of Helsinki and Good Clinical Practice Guidelines. All sites received approval from an institutional review board and written informed consent was obtained from each patient prior to participation. Table 12. Unified Dyskinesia Rating Scale (UDysRS)
All hypotheses were tested using 2-sided tests with alpha set at the 0.050 level of significance. In general, efficacy data were summarized by treatment group, and safety data were summarized by treatment group and overall.

clinical = conditions: human, plasma, po
[3] = system: patients with idiopathic PD and levodopa induced dyskinesias (LIDs); remark: listed apart in the source
Method: Efficacy was measured with the Unified Dyskinesia Rating Scale (UDysRS), a semi- quantitative assessment, FDA-validated instrument to assess gait, balance and dyskinesia in PD. […] Dosing was begun at 1 mg every 6 hours to a final dose of 24 mg per day.
All hypotheses were tested using 2-sided tests with alpha set at the 0.050 level of significance. In general, efficacy data were summarized by treatment group, and safety data were summarized by treatment group and overall. In all analyses, assumptions such as normality and homogeneity of variance were examined prior to conducting the proposed parametric statistical procedures. Categorical variables were analyzed by Fisher's exact 2- tailed test and continuous variables were tested under 2-sample t-tests. The equality of variances was examined using an F-test before applying the 2-sample t-test.

[4] = Baseline to Week 10, 30 NP002 patients
[5] = Baseline to Week 10, minus = improvement, 30 NP002 patients
[6] = Baseline to Week 10, plus = worsening, 30 NP002 patients
[7] = NP002 Patients Baseline (before treatment)
[8] = NP002 patients at 10 Weeks, up to 24 mg/day orally
[9] = NP002 patients at Baseline (before treatment)

CN1CCCC1c1cccnc1.O=C(O)C(O)C(O)C(=O)O (centres unmarked) [NP002, Nicotine Bitartrate]
time by which the plasma concentration of nicotine returns close to baseline [1]: ~ 6 hours
UPDRS Part II (ADL) and Part III (Motor Examination) after treatment, NP002 vs placebo ([2]; 10 weeks): no significant differences
Falls (UPDRS Part II Question 13), number of patients with change -3 ([2]; Baseline to Week 10, 5-point scale, minus = improvement, 30 NP002 patients): 1
FOG (UPDRS Part II Question 14), number of patients with No Change [2, 4]: 17
FOG (UPDRS Part II Question 14), number of patients with change +2 [2, 4]: 0
FOG (UPDRS Part II Question 14), number of patients with change +3 [2, 4]: 0
FOG (UPDRS Part II Question 14), number of patients with change -1 [2, 4]: 10
FOG (UPDRS Part II Question 14), number of patients with change -2 [2, 4]: 2
Falls (UPDRS Part II Question 13), number of patients with No Change [2, 4]: 16
Falls (UPDRS Part II Question 13), number of patients with change +2 [2, 4]: 0
Falls (UPDRS Part II Question 13), number of patients with change +3 [2, 4]: 0
Falls (UPDRS Part II Question 13), number of patients with change -1 [2, 4]: 7
Falls (UPDRS Part II Question 13), number of patients with change -2 [2, 4]: 5
Pull Test (Item 30 of the UPDRS Part III), number of patients with No Change [2, 4]: 19
Pull Test (Item 30 of the UPDRS Part III), number of patients with change +2 [2, 4]: 0
Pull Test (Item 30 of the UPDRS Part III), number of patients with change +3 [2, 4]: 0
Pull Test (Item 30 of the UPDRS Part III), number of patients with change -1 [2, 4]: 5
Pull Test (Item 30 of the UPDRS Part III), number of patients with change -2 [2, 4]: 5
FOG (UPDRS Part II Question 14), number of patients with change -3 [2, 5]: 0
Pull Test (Item 30 of the UPDRS Part III), number of patients with change -3 [2, 5]: 0
FOG (UPDRS Part II Question 14), number of patients with change +1 [2, 6]: 1
Falls (UPDRS Part II Question 13), number of patients with change +1 [2, 6]: 1
Pull Test (Item 30 of the UPDRS Part III), number of patients with change +1 [2, 6]: 1
patients with a reduction in falls ([2]; Fourteen of 30 NP002 patients, p=0.00857 vs placebo): 47%
Total Score UDysRS [2, 7]: 51.7 +/-16.9
UDysRS Evaluation of Dyskinesias on 7 Body Parts [2, 7]: 13.5 +/-5.4
UDysRS Evaluation of Dyskinesias on Ambulation [2, 7]: 9.5 +/- 6.0
UDysRS Evaluation of Dyskinesias on Communication [2, 7]: 10.5 +/-4.8
UDysRS Evaluation of Dyskinesias on Dressing [2, 7]: 11.3 +/-6.2
UDysRS Evaluation of Dyskinesias on Drinking [2, 7]: 9.1 +/- 5.6
Total Score UDysRS ([2]; NP002 Patients Week 10): 36.4 +/-16.1
UDysRS Evaluation of Dyskinesias on 7 Body Parts ([2]; NP002 Patients Week 10): 8.5 +/- 5.4
UDysRS Evaluation of Dyskinesias on Ambulation ([2]; NP002 Patients Week 10): 5.1 +/- 5.3
UDysRS Evaluation of Dyskinesias on Communication ([2]; NP002 Patients Week 10): 7.0 +/- 5.0
UDysRS Evaluation of Dyskinesias on Dressing ([2]; NP002 Patients Week 10): 6.9 +/- 5.5
UDysRS Evaluation of Dyskinesias on Drinking ([2]; NP002 Patients Week 10): 5.3 +/- 5.0
UPDRS II [2, 8]: 10.1 ± 5.3
UPDRS III [2, 8]: 17.3 ± 10.6
UPDRS II [2, 9]: 13.1 ± 6.0
UPDRS III [2, 9]: 20.0 ± 8.8
Difference in LS Means 95% Confidence Interval, UPDRS Part III ([2]; NP002 versus Placebo, p-value 0.337): -18.3 ± 1.8 (-5.8, 2.0)
Difference in LS Means 95% Confidence Interval, UPDRS Part II ([2]; NP002 versus Placebo, p-value 0.631): 10.1 ± 0.96 (-3.2, 2.0)
UDysRS Evaluation of Dyskinesias on Ambulation, Difference LS Means ([2]; NP002 vs placebo, p-value 0.011*): -3.7 +/-1.9
UDysRS Evaluation of Dyskinesias on 7 Body Parts, Difference LS Means ([2]; NP002 vs placebo, p-value 0.062): -2.8 +/-2.6
Total Score UDysRS, Difference LS Means ([2]; NP002 vs placebo, p-value 0.092): -6.7 +/-4.1
UDysRS Evaluation of Dyskinesias on Dressing, Difference LS Means ([2]; NP002 vs placebo, p-value 0.139): -2.1 +/-1.4
UDysRS Evaluation of Dyskinesias on Drinking, Difference LS Means ([2]; NP002 vs placebo, p-value 0.171): -2.4 +/-1.7
UDysRS Evaluation of Dyskinesias on Communication, Difference LS Means ([2]; NP002 vs placebo, p-value 0.189): -1.9 +/-1.4
patients with a reduction in retropulsion ([2]; Ten of 30 NP002 patients, p=0.0228 vs placebo): 33.3%
patients with a reduction in FOG ([2]; Twelve of 30 NP002 patients, p=0.04301 vs placebo): 40%
PGI-C responders (subjects with a score of 1, 2, or 3) ([2]; Visit 4 (Week 10), 21 responders, p = 0.0048 vs placebo): 77.8%
UPDRS II Change ([2]; baseline to 10 weeks): 2.8 + 5.2
UPDRS III Change ([2]; baseline to 10 weeks): 2.0 + 7.5
patient- and physician-rated assessments of efficacy versus placebo ([2]; human, in vivo): superior to placebo
patients with either a reduction or absence of FOG during the active phase ([2]; human, in vivo): ~73%
patients with either a reduction or absence of falls during the active phase ([2]; human, in vivo): ~87%
patients with no FOG during the study ([2]; of 30 NP002 patients): 10
patients with no falls during the study ([2]; of 30 NP002 patients): 12
reduction (improvement) in the effect of LIDs on ambulation, UDysRS ambulation subtest ([2]; p=0.011 vs placebo): 46%
reduction in LIDs, Total UDysRS ([2]; p=0.092 vs placebo): 39%
Tmax (clinical): ~1.5 h
Adverse Event: Constipation ([3]; N=35): 5 (14.3) Number (%)
Adverse Event: Diarrhea ([3]; N=35): 2 (5.7) Number (%)
Adverse Event: Dizziness ([3]; N=35): 7 (20.0) Number (%)
Adverse Event: Fatigue ([3]; N=35): 3 (8.6) Number (%)
Adverse Event: Headache ([3]; N=35): 2 (5.7) Number (%)
Adverse Event: Insomnia ([3]; N=35): 0 (0.0) Number (%)
Adverse Event: Nausea ([3]; N=35): 13 (37.1) Number (%)
Adverse Event: Nightmare ([3]; N=35): 2 (5.7) Number (%)
Adverse Event: Pain ([3]; N=35): 3 (8.6) Number (%)
Adverse Event: Pain in extremity ([3]; N=35): 2 (5.7) Number (%)
Adverse Event: Tremor ([3]; N=35): 2 (5.7) Number (%)
Adverse Event: Vomiting ([3]; N=35): 4 (11.4) Number (%)
Number (%) of subject with any AE ([3]; N=35): 26 (74.3) Number (%)
Serum cotinine levels ([3]; compliance check): paralleled dosing of nicotine
adverse events reported ([3]; number of events among NP002 patients): 45
Primary reason for study discontinuation: Adverse event ([3]; of 35 randomized): 6 (17.1) n (%)
Primary reason for study discontinuation: Protocol violation ([3]; of 35 randomized): 2 (5.7) n (%)
Subjects who completed study per protocol ([3]; of 35 randomized): 25 (71.4) n (%)
Subjects who discontinued the study ([3]; of 35 randomized): 10 (28.6) n (%)
subjects who completed the study ([3]; of 35 randomized): 25 subjects
subjects who withdrew because of AEs ([3]; of 35 randomized): 6 subjects
subjects who withdrew because of protocol violations ([3]; of 35 randomized): 2 subjects
subjects who withdrew from the study ([3]; of 35 randomized): 10 subjects
Primary reason for study discontinuation: Other ([3]; subject going on vacation, of 35 randomized): 2 (5.7) n (%)
Subjects who required dose reduction or discontinuation of study treatment ([3]; treated subjects with any adverse events with action taken = reduced/discontinued study drug, of 35 randomized): 7 (20.0) n (%)
